Literature values in US20230364004A1, “STABLE COMPOSITIONS CONTAINING A CANNABINOID” (ANGROW COMPANY LIMITED, priority 2022, published 2023).

Conditions: within 24 hours, simulated physiological condition (PH 7.4 and 37° C.)

In the case of `C=C(C)[C@@H]1CCC(C)=C[C@H]1c1c(O)cc(CCCCC)cc1O` [CBD, cannabidiol], the CBD degraded is given as 10%.
